{"source": "patent US9862748B2", "about": "“Peptide compounds and methods of production and use thereof” (priority 2012, dated 2018)", "key": {"[1]": {"system": "Acinetobacter baumannii ATCC® BAA-747™", "assay_type": "cell-based", "conditions": "3.12-25 μM; 60 minutes", "method_in_brief": "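Peptides at 25, 12.5, 6.25 and 3.12 μM were incubated with 1×10^6 CFU/ml bacteria at pH 5.5 or 7.2, with tryptone saline as negative control and gentamicin (4 μg/ml) as positive control. Incubation was 60 min for A. baumannii and 180 min for P. aeruginosa. Surviving CFU counted after overnight plating, expressed as log reduction in CFU/ml.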"}, "[2]": {"system": "mouse cornea (corneal epithelial abrasion)", "test": "In vivo model of corneal wound healing", "conditions": "treated at 0 and 16 hours; 95-122 10^−5 M; 120-146WH 10^−8 M or 10^−6 M; HB-EGF 250 ng/ml", "protocol": "The in vivo model of wound healing was carried out using a disposable biopsy punch (2 mm, Miltex, York, Pa.) to demarcate the mouse cornea and a 0.5 mm burr using the AlgerBrush II (The Alger Company, Inc., Lago Vista, Tex.) to remove the corneal epithelium.\nMice were anesthetized using ketamine (100 mg/kg; Bionichepharma, LLC., St. Lake Forrest, Ill.) and xylazine ([…]; Rompun; Bayer Corp., Shawnee Mission, Kans.), and the right cornea was wounded as follows. A disposable biopsy punch (2 mm, Miltex, York, Pa.) was used to demarcate the mouse cornea. The corneal epithelium was carefully removed within the 2 mm demarcated area with a 0.5 mm burr using the AlgerBrush II (The Alger Company, Inc., Lago Vista, Tex.). The corneal abrasions were treated at 0 and 16 hours with HB-EGF (250 ng/ml), rCAP37 (250 ng/ml), or vehicle control (0.9% sodium chloride, pH 5.5, Baxter, Deerfield, Ill.). Corneal abrasions were visualized using sterile fluorescein sodium ophthalmic strips USP (FLUORETS®, Chauvin Laboratory, Aubenas, France) dampened with sterile PBS. Images were taken at 0, 16, 24, and 48 hours immediately following fluorescein staining using a surgical microscope equipped with a camera (Carl Zeiss OPMI VISU 140, Carl Zeiss Surgical, Inc., Oberkochen, Germany). The areas of the open wound were quantitated using ImageJ software (US National Institutes of Health), and the results were reported as the percentage of wound closure.\nWhole mouse eyes were collected for histology at 0, 6, 16, 24, and 48 hours post wounding and were immediately placed in Prefer fixative (Anatech LTD., Battle Creek, Mich.) for 20 minutes before being transferred to 70% ethanol. Tissues were paraffin-embedded and cut at a thickness of 5 μm, mounted on SUPERFROSTPLUS® slides (Statlab Medical Products, Lewisville, Tex.), and subsequently deparaffinized, rehydrated, and washed in deionized water. Sections were stained with hematoxylin (Leica Microsystems, Buffalo Grove, Ill.) and rinsed twice in deionized water before being washed in Blue Buffer (Leica Microsystems). The sections were finally washed in deionized water and 95% ethanol prior to being counterstained with eosin (Leica Microsystems). Sections were dehydrated in ethanol and cleared in xylene."}, "swine skin wounds": {"system": "swine skin wounds", "test": "Swine dermal wound model, histological evaluation", "assay_type": "in vivo", "conditions": "day 14 post-wounding", "protocol": "The characteristics that were measured are required to indicate features of a well-healed wound. Inflammation should be low and re-epithelialization high.\nFull thickness excisional wounds were induced on the dorsum of swine (N=3) using a 1.0 cm biopsy punch. Treatments were administered (0.20 ml) to each wound (N=6 wounds per group), and the wounds were dressed with standard occlusive dressing ([…]™, 3M Corporation, St. Paul, Minn.). Treatments were reapplied daily and dressings changed. Clinical wound healing observations and wound area (2 mm) measurements were performed on days 0, 3, 5, 7, 10, and 14 post-wounding. Wound area (2 mm) data were expressed as percentage (%) of wound healing. Animals were terminated on day 14 with wounds harvested and processed for histological evaluation. […] All peptide formulation treatment groups healed faster with greater rate of closure and re-epithelialization over time, as compared to the saline control (Group A).\nThe histology correlated with the clinical observations. […] There were minimal differences in the amount or character of granulation tissue, inflammation, and angiogenesis. All the wounds were well filled and vascularized."}}}
{"sequence": "LDREANLTSSVTILPLPLQNATVEAGTR (listed as Homo sapiens) [Peptide 95-122]", "values": [{"measurement": "activity against Acinetobacter at either pH (5.5, 7.2)", "setting": "[1]", "result": "not active"}, {"measurement": "corneal wound healing versus vehicle", "setting": "[2]", "result": "promotes corneal wound healing"}, {"measurement": "epidermal resurfacing and maturation of the epidermis versus saline control", "setting": "swine skin wounds", "result": "greater extent of epidermal resurfacing and maturation of the epidermis"}, {"measurement": "Histopathology Results, Mean Angiogenesis", "setting": "swine skin wounds; 3 mg/ml", "result": 2.3}, {"measurement": "Histopathology Results, Mean Epithelization", "setting": "swine skin wounds; 3 mg/ml", "result": 4.0}, {"measurement": "Histopathology Results, Mean Granulation", "setting": "swine skin wounds; 3 mg/ml", "result": 4.0}, {"measurement": "Histopathology Results, Mean Inflammation", "setting": "swine skin wounds; 3 mg/ml", "result": 0.5}]}
